# Entries after “also recorded” stand apart in the source; their conditions may differ.
# Key:
# Pde6α^D670G mice [1] = test: Histological analysis of outer nuclear layer (ONL) thickness by number of photoreceptor cell nuclei; assay type: in vivo, mouse; details: vs untreated Pde6α^D670G mice, one month of age
# Protocol: Histology—Mice were sacrificed and the eyes enucleated as previously described (19). Eyes were embedded in paraffin, sectioned, and stained with hematoxylin and eosin by Exaclibur Pathology, Inc. (Norman, OK), before being visualized by light microscopy (Leica DM 5000B, Leica Microsystems, Germany). Quantification of photoreceptor nuclei was conducted on several sections that contained the optic nerve, as follows: the distance between the optic nerve and the ciliary body was divided into four, approximately equal, quadrants. Three columns of nuclei (how many cell nuclei thick) were counted within each single quadrant. These counts were then used to determine the average thickness of the ONL for each individual animal at each time. Sectioning proceeded along the long axis of the segment, so that each section contained upper and lower retina as well as the posterior pole.
# Gene ontology (GO) analysis was also performed in PANTHER.
# Pde6α^D670G mice [2] = test: Electroretinography (ERG) of treated Pde6α^D670G arRP mice; details: vs untreated Pde6α^D670G mice, one month of age
# Protocol: Mouse lines and husbandry—C57BL/6J-Pde6α^nmf363/nmf363, with a D670G mutation, herein referred to as Pde6α^D670G, mice were obtained from the Jackson Laboratory (Bar Harbor, ME, USA). Pde6α^D670G are co-isogenic in the C57BL/6J (B6) background; therefore, age-matched B6 mice were used as experimental controls. Mice were bred and maintained at the facilities of Columbia University and Stanford University. Animals were kept on a light-dark cycle (12 hour-12 hour). Food and water were available ad libitum throughout the experiment, whether treated or untreated. Dark-raising was performed under 24 hr dark cycle following approved institutional guidelines. […] All water bottles were covered in foil to reduce light exposure and changed weekly during the duration of the experiment following approved institutional guidelines.
# Electroretinography (ERG)—Mice were dark-adapted overnight, manipulations were conducted under dim red-light illumination, and recordings were made using Espion or Celeris ERG Diagnosys equipment (Diagnosys LLL, Littleton, MA, USA) as previously described. Briefly, adult B6 control mice were tested at the beginning of each session to ensure equal readouts from the electrodes for both eyes before testing the experimental mice. Pupils were dilated using topical 2.5% phenylephrine hydrochloride and 1% tropicamide (Akorn Inc., Lakeforest, IL, USA). Mice were anesthetized by intraperitoneal injection of 0.1 ml/10 g body weight of anesthesia [1 ml ketamine 100 mg/ml (Ketaset III, Fort Dodge, IA, USA) and 0.1 ml xylazine 20 mg/ml (Lloyd Laboratories, Shenandoah, IA, USA) in 8.9 ml PBS]. Body temperature was maintained at 37° C. during the procedure. Both eyes were recorded simultaneously and responses were averaged for each trial. Responses were taken from the Espion/Celeris readout in microvolts.
# Statistical and bioinformatics analysis—Results were also saved in Excel as .txt format and were uploaded into the Partek Genomics Suite 6.5 software package as described previously (5-9). The data was normalized to log base 2 and compared using 1-way ANOVA analysis. All proteins with non-significant (p>0.05) changes were eliminated from the table. The significant values were mapped using the ‘cluster based on significant genes’ visualization function with the standardization option chosen. […] Differences in experimental groups were determined by the Student's t-test as appropriate, or by one-way ANOVA followed by Tukey's post-hoc multiple comparison's test. p values <0.05 were considered significant. For ERG and histological analysis of mouse eyes, differences were determined by the Student's t-test as appropriate, or by one-way ANOVA followed by Tukey's post-hoc multiple comparison's test. p values<0.05 were considered significant.
SMILES,thickness of the outer nuclear layer (ONL) by number of photoreceptor cell nuclei (Pde6α^D670G mice [1]),"maximum scotopic a-wave response, quantification of ERGs from a cohort of mice (Pde6α^D670G mice [2])","maximum scotopic b-wave response, quantification of ERGs from a cohort of mice (Pde6α^D670G mice [2])","rod photoreceptor cell response, quantification of ERGs from a cohort of mice (Pde6α^D670G mice [2])","rod photoreceptor cell response, scotopic 0.1 dim-light rod-specific ERG (representative traces) (Pde6α^D670G mice [2]; vitamins 2.5 g/L or alpha-ketoglutarate 10 g/L in drinking water from P0, ketogenic diet from P21)"
"O=C(O)CCC(=O)C(=O)O [alpha-ketoglutarate, Alpha-ketoglutaric acid]",significant rescue of photoreceptor cells and their inner/outer segments; also recorded: significant increase in the thickness of the outer nuclear layer (ONL),–,–,–,–
"NC(=O)c1cccnc1 [vitamin B3, Nicotinamide]",–,no significant visual rescue,no significant visual rescue,no significant visual rescue,increased rod photoreceptor functional response
